We go through eight molecules from patent US20260315521A1, “THERAPEUTIC FORMULATIONS FOR KIDNEY DISEASE COMPRISING REPAGERMANIUM OR PROPAGERMANIUM AND/OR AT1R BLOCKERS” (DIMERIX BIOSCIENCE PTY LTD, priority 2023, published 2026).

For data set [1], the target named is T1, AT1R (Homo sapiens, UniProt P30556).
T1 sequence (P30556 1-359): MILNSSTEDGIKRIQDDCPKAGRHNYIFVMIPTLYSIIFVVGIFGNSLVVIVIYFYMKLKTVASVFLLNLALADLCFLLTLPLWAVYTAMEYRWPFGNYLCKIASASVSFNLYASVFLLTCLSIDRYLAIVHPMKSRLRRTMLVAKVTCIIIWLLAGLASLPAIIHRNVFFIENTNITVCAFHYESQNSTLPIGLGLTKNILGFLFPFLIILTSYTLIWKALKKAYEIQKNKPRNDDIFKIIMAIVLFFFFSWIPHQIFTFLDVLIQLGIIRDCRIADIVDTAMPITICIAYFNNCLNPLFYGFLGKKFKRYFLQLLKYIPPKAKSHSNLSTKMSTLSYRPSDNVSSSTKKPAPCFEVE
As to conditions: pIC50 or pKb from IUPHAR and/or Michel et al (2013), fimasartan from Choung et al 2018; cited from earlier work.

Data set [2] has as its target T1, AT1R. The data set can be described thus: ARB potency or affinity at AT1R only (public sources: IUPHAR guide to pharmacology, Michel et al 2013, Choung et al 2018). As to conditions: reference value. The class given is binding.
Data set [3] deals with chemotactic migration of monocytes by MCP-1. As to conditions: cited from earlier work.
Data set [4] deals with T2, co-stimulated CCR2-AT1R complexes (Homo sapiens, UniProt P30556).
T2 construct: HA (haemagglutinin); expressed in transfected cells; host or cells: HEK293FT
T2 sequence (P41597 whole entry partner, one chain of several): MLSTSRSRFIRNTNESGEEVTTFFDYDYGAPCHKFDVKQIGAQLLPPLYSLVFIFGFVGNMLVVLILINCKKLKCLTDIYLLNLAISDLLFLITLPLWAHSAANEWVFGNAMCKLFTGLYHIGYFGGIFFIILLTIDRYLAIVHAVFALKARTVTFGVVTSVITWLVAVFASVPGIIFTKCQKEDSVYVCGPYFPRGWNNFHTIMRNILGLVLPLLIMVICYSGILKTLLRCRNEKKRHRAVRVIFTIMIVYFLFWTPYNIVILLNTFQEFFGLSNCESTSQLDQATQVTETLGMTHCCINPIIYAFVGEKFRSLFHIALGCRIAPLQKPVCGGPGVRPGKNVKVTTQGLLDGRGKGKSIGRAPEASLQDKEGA
The data set can be described thus: Gαi protein dissociation assay (ligand-induced BRET) in HEK293FT cells co-stimulated with AngII and MCP-1/CCL2. The class given is cell-based. The text has this: To establish if ARBs maintain their potency for inhibition of Gαi protein activation the potencies of ARBs at AT1R only were correlated with the potency of ARBs at co-stimulated CCR2-AT1R complexes obtained from a Gαi protein dissociation assay (FIG. 2).
HEK293FT cells were transiently transfected by the plasmids coding for Gαi1-Nluc and CCR2-YFP haemagglutinin (HA)-tagged AT1R.
GraphPad Prism (v9.3.1) was then used plot ligand-induced BRET verses ARB concentration and potency (pIC50-values) were obtained by fitting a sigmoidal concentration response curve using non-linear regression function of GraphPad Prism (v9.3.1).
To calculate the potency of sparsentan HEK293FT cells were transiently transfected by the plasmids coding for Gαi1-Rluc8, CCR2-YFP and haemagglutinin (HA)-tagged AT1R. 48 h post-transfection, cells were incubated with substrate for 2 hours before cells were pre-incubated with sparsentan (1 μM) and filtered light emissions were sequentially measured for 1 s in each of the ‘donor wavelength window’ (410-490 nm) and ‘acceptor wavelength window’ (520-620 nm) for 30 minutes.
The potency of ARBs at co-stimulated CCR2-AT1R complexes was then compared to the potency of ARBs at AT1R using the linear regression function of GraphPad Prism (v9.3.1).
On the technique in general: In BRET a luciferase serves as donor, and the signal depends on an acceptor being close.

The test system of data set [5] is angiotensin II-induced cellular responses. To be noted: compared with losartan; cited from earlier work.
Data set [6] deals with protein to creatinine ratio. The data set can be described thus: Reduction in protein to creatinine ratio as a biomarker of kidney function. To be noted: 120 mg BID. The class given is in vivo, human.
The nature of data set [7]: Population pharmacokinetic analysis of repagermanium (studies DMX-200-101, -202, -203; LC-MS/MS plasma levels). The class given is in vivo, human. As to conditions: for AUC(0-t) at 24 h: 240 mg/day, read-out: AUC24h, steady state, median; for AUC(0-t) at 24 h / AUC24h, steady state, range: 240 mg total daily dose; for CL/F: po, read-out: Clearance, median (converted). The protocol: In all studies blood samples were analyzed using liquid chromatography tandem mass spectrometry (LC-MS/MS). This method involves the addition of deuterated-PPG (d2-PPG) as an internal standard (IS) and liquid-liquid extraction with chloroform for sample processing. The sample is analyzed on an LC-MS/MS system consisting of a Shimadzu LC20AD with Thermo Fisher Hypercarb column using gradient elution and an API 4000 mass spectrometer. The mass spectrometer is operated in the negative electrospray ionization (ESI) ion mode, and used to monitor the precursor to product ion transitions for PPG and d2-PPG, respectively. The lower limit of quantification (LLOQ) was 5 ng/ml.
The pharmacometric analysis was carried out in several steps driven by the suitability of the clinical data for development of the PK model. 1. An initial structural population PK model was developed using data from healthy volunteers (study 101). 2. This model was subsequently updated using the sparse data in patients from studies 202 and 203, and effects of covariates were explored. 3. Model qualification was performed. 4. Finally, the developed model was used for simulations of the influence of covariates on key PK parameters as well as on potential exposures.
The SAS software (version 9.4) was used for preparing the analysis dataset. The population PK analysis was performed using NONMEM (version 7.5.0) and the first order conditional estimation (FOCE) method with interaction. PsN (version≥5.0.0) was used to execute NONMEM runs as well as for running visual predictive checks (VPCs), sampling importance resampling (SIR) and automated step-wise covariate modelling (SCM). The R software (version≥4.0.2) was used for exploratory analysis, creation of goodness of fit (GOF) plots, and summary statistics. Campsis (version 1.1.0), an R-based software application provided by Calvagone, was used for simulations.
The NONMEM version 7.5.0 was used with the GNU Fortran (GCC) compiler version 9.3.0, running on a Ubuntu 20.04 LTS system with Linux kernel version 5.4.0-72-generic on Intel Xeon E5-2640 v3 @ 8 HT 2.60 GHz, using VMWare ESXi 7.0u1 platform with fault tolerance, hosting virtual management server with 8 vCPU; and calculation nodes with Intel Xeon E5-2680 v4 14HT 2.40 GHz. Fortran compiler optimisation options were:-static-w-O3-ffast-math. All software was used in a validated environment.
In the mixed effects modelling the population parameters are categorised as follows: Fixed effects parameters, θ (theta), are used for the structural population parameters (e.g. Ka, CL, V, F, etc.), as well as certain parameters relating the population parameters to the physiological or demographic variables (covariates) included in the analysis. Random effects parameters, n (eta), are used for describing inter-individual variability (IIV) in the fixed effects parameters, and can also be used to describe inter-occasion variability (IOV) if appropriately included in the model. Eta parameters are assumed to be normally distributed random variables with mean zero and variance-covariance matrix Q (omega). The square root of the diagonal elements of this matrix provides the IIV estimates. Off-diagonal elements (if not fixed to zero) are commonly translated to correlations. Random effects parameters, ¿ (epsilon), are used to describe the residual variability. Residual variability includes intra-individual error, analytical error, potential error due to model missspecification and any other error not considered by structural elements such as θ and η. Residual variability parameters are assumed to be normally distributed random variables with mean zero and standard deviation σ (sigma).
Different structural models combined with different residual error models and, if needed, with different estimation methods were applied to identify the most appropriate mixed-effects model. […]

Data set [8] in a line: Effect of different doses of repagermanium on efficacy of treatment (FIG. 1). The class given is in vivo.
The mark [9] stands for this setting: study 101, healthy volunteers, oral.
The mark [10] stands for this setting: study 202, FSGS patients receiving irbesartan.
The mark [11] stands for this setting: study 203, DKD patients receiving irbesartan.

Structures are written as SMILES. Where two headings read alike, the source gives them in different places.

Turning to `CCCCc1ncc(/C=C(\Cc2cccs2)C(=O)O)n1Cc1ccc(C(=O)O)cc1` [Eprosartan], the “Potency (pIC50/pKb), AT1R only” value in data set [1] is 8.8. The “Fold decrease in potency, AT1R only” value in data set [2] was determined as 1.00 fold.
On to `CCOc1nc2cccc(C(=O)O)c2n1Cc1ccc(-c2ccccc2-c2nnn[nH]2)cc1` [Candesartan], for which the “Potency (pIC50/pKb), AT1R only” value in data set [1] is listed as 10. In addition, the “Fold decrease in potency, AT1R only” value in data set [2] turned out to be 1.00 fold.
On to `CCCCc1nc(C)c(CC(=S)N(C)C)c(=O)n1Cc1ccc(-c2ccccc2-c2nnn[nH]2)cc1` [Fimasartan], for which the “Potency (pIC50/pKb), AT1R only” value in data set [1] was 8.82^$. Besides, in data set [2], the “Fold decrease in potency, AT1R only” value turned out to be 1.00 fold.
`O=C(O)C[CH2][Ge](=[O])[O][Ge](=[O])[CH2]CC(=O)O` [propagermanium, 3-[(2-carboxyethyl-oxogermyl)oxy-oxogermyl] propanoic acid]: the “inhibition of in vitro chemotactic migration of monocytes by MCP-1” value in data set [3] was “specifically inhibit in vitro chemotactic migration of monocytes by MCP-1”.
As to `CCOc1nc2cccc(C(=O)O)c2n1Cc1ccc(-c2ccccc2-c2nc(=O)o[nH]2)cc1` [Azilsartan], in data set [4] (HEK293FT, 100 nM AngII + 100 nM MCP-1, 30 min ARB pre-incubation), the “Potency (pIC50), AT1R-CCR2” value is listed as 9.97. Moreover, the “Potency (pIC50/pKb), AT1R only” value in data set [1] was 9.9. Further, in data set [2], the “Fold decrease in potency, AT1R only” value is given as 1.00 fold.
Regarding `CCCCc1nc(Cl)c(C(=O)O)n1Cc1ccc(-c2ccccc2-c2nn[nH]n2)cc1` [EXP3174], the “potency in blocking angiotensin II-induced cellular responses” value in data set [5] was “significantly more potent than losartan”.
Regarding `O=C(O)C[CH2][Ge](=[O])[O][Ge](=[O])[CH2]CC(=O)O` [repagermanium, 3-[(2-carboxyethyl-oxogermyl)oxy-oxogermyl]propanoic acid], the “protein to creatinine ratio” value in data set [6] is recorded as “reduction in protein to creatinine ratio”. Moreover, the “blood concentration before the next dose” value in data set [7] (80 mg twice per day) was “falling too low before the next dose to provide a therapeutic effect”. Further, in data set [7] (120 mg BID), the “steady state AUC, range” value fell in the range of 5000 to 25000 ng·h/mL. Also, the AUC(0-t) at 24 h amounted to 9800 ng·h/mL in data set [7] (human, plasma, study 101, healthy volunteers); 16700 ng·h/mL in data set [7] (human, plasma, study 202, FSGS patients); 11800 ng·h/mL in data set [7] (human, plasma, study 203, DKD patients). For the same molecule, the CL/F in data set [7] (human, plasma, study 101, healthy volunteers, oral) was 670 mL/min; in data set [7] (human, plasma, study 202, FSGS patients receiving irbesartan, 120 mg bid oral) it was 300 mL/min; in data set [7] (human, plasma, study 203, DKD patients receiving irbesartan, 120 mg bid oral), 345 mL/min. For the same molecule, the AUC in data set [7] (human, plasma, 120 mg BID, read-out: steady state AUC) is about 15000 ng·h/mL. Moreover, the “Clearance, range” value in data set [7] (setting [9]) was 24.6 to 60.1 L/h; in data set [7] (study 202, FSGS patients receiving irbesartan, 120 mg bid oral), 4.6 to 36.5 L/h; in data set [7] (study 203, DKD patients receiving irbesartan, 120 mg bid oral) it was 5.8 to 47.6 L/h. In addition, the “F (rel. bioavailability), median” value in data set [7] (setting [9]) was found to be 1.6; in data set [7] (setting [10]), 1.1; in data set [7] (setting [11]), 1.0. Further, the “F (rel. bioavailability), range” value in data set [7] (setting [9]) is on record as 0.7-3.7; in data set [7] (setting [10]) it was 0.9-1.7; in data set [7] (setting [11]), 0.4-1.9. The “AUC24h, steady state, range” value in data set [7] (study 101, healthy volunteers) was in the range of 5500 to 24900 ng·h/mL; in data set [7] (study 202, FSGS patients), 7800 to 45200 ng·h/mL; in data set [7] (study 203, DKD patients) it was 3900 to 47700 ng·h/mL. The therapeutic effect result in data set [8] (140 mg twice per day) was “reduced therapeutic effect”. Besides, the “efficacy vs repagermanium dose” value in data set [8] (different doses, FIG. 1) was “‘bell-shaped’ inhibitory curve”.
Consider `CCCCC1=NC2(CCCC2)C(=O)N1Cc1ccc(-c2ccccc2S(=O)(=O)Nc2noc(C)c2C)c(COCC)c1` [Sparsentan, 2-[4-[(2-butyl-4-oxo-1,3-diazaspiro[4.4]non-1-en-3-yl)methyl]-2-(ethoxymethyl)phenyl]-N-(4,5-dimethyl-1,2-oxazol-3-yl)benzenesulfonamide], for which the Kb in data set [4] (read-out: Affinity (pKb), AT1R-CCR2 (converted)) is 1.74 nM. In addition, the “Potency (pIC50/pKb), AT1R only” value in data set [1] is 9.1. The “Fold decrease in potency, AT1R only” value in data set [2] was determined as 1.00 fold.

For orientation: AUC means the area under the concentration-time curve, a measure of exposure.
